# Measurements as given in patent publication US11472825B2, “Real-time fluorescence imaging sensor for measuring glutathione in organelle and preparation method therefor” (CELL2IN, INC., priority 2017, dated 2022).
# Key:
# [1] = system: mitochondrial glutathione in HeLa cells; test: Real-time imaging of living cells loaded with MitoFreSH-tracer (confocal, F510/F580 ratio); type: cell-based
# Protocol: 1-5. Real-Time Imaging of Living Cells
# HeLa cells were cultured in DMEM (containing 10% heat-inactivated FBS (Hyclone), 100 U/ml of penicillin, 100 μg/ml of streptomycin sulfate and 2 mM glutamine aid free of phenol red). HeLa cells were seeded in 35 mm cover glass bottom dishes (SPL Life Sciences), and then cultured under the conditions of 37° C. and 5% CO2 for foe indicated time. Before observation using a fluorescence microscope, the HeLa cells were incubated with 2 mL of a medium containing 10 μM of the FreSH-tracer-derived compound for 0.5 to 1.5 hours. After washing twice with PBS, real-time images of the cells were acquired using a Nikon A1 laser scanning confocal microscope. […] The FreSH-tracer-derived compound was excited with laser beams at 403 nm and 488 nm, and the fluorescence of the tracer-derived compound was detected through filters with 500-550 nm and 570-620 nm band intervals, respectively. Using NIS-Elements AR software, the experimental data were analyzed and the ratio of fluorescence was imaged (see FIGS. 4 and 5).
# The present inventors have studied the applicability of the MitoFreSH-tracer to examination of changes in mitochondrial glutathione levels in living cells. […] The sensor fluorescence intensity ratio calculated from images of the living cells was reduced by treatment with diamide (FIGS. 4B and 4C). […]
# [2] = system: glutathione in the Golgi apparatus of HeLa cells; test: High-throughput cell imaging of cells loaded with GolgiFreSH-tracer; type: cell-based
# Protocol: 1-6. High-Throughput Cell Imaging
# HeLa cells were cultured in DMEM (containing 10% heat-inactivated FBS (Hyclone), 100 U/ml of penicillin, 100 μg/ml of streptomycin sulfite and 2 mM glutamine and free of phenol red). HeLa cells were seeded in Greiner 96-well dishes (Sigma-Aldrich), and then cultured under the conditions of 37° C. and 5% CO2 for the indicated time. Before observation using a fluorescence microscope, the HeLa cells were incubated with a medium containing 10 μM of the GolgiFreSH-tracer for 0.5 to 1.5 hours. After washing twice with Hank's balanced salt solution, real-time images of the cells were acquired using an Operetta High-Content Imaging System (PerkinElmer). The imaging test was performed while the cells w ere incubated under the conditions of 37° C. and 5% CO2 in a chamber mounted in the microscope. The GolgiFreSH-tracer was excited with LED light at 410-430 nm and 490-510 nm, and the fluorescence of the tracer was detected through filters with 460-540 nm and 560-630 nm band intervals, respectively. BODIPY TR C5ceramide was excited with LED light at 560-580 nm, and the fluorescence thereof was detected through filters with 590-640 nm band intervals. Using the Harmony software, the experimental data were analyzed (see FIGS. 4, 5 and 8). […]
compound,measurement,setting,value
Antimycin A,fluorescence intensity ratio of MitoFreSH-tracer in living cells,"[1]; cells treated with antimycin A for 75 minutes, various concentrations",decreased depending on the concentration
"CN(C)C(=O)/N=N/C(=O)N(C)C [diamide, Diamide]",fluorescence intensity ratio of GolgiFreSH-tracer in living cells,[2]; living cells treated with various concentrations of diamide,decreased depending on the concentration
same,sensor fluorescence intensity ratio of GolgiFreSH-tracer in living cells,"[2]; sensor-loaded living cells, 1 mM diamide",reduced
same,sensor fluorescence intensity ratio (F510/F580) of MitoFreSH-tracer in living cells,"[1]; HeLa cells loaded with MitoFreSH-tracer, 0.5 mM diamide",reduced
